Results as given in ChEMBL document CHEMBL1275551, “Identification of the genetic basis for clinical menadione-auxotrophic small-colony variant isolates of Staphylococcus aureus” (Antimicrob Agents Chemother, 2008).

Assays:
Format in all cases: functional, organism-based
[1] = test system: Staphylococcus aureus; assay: Antibacterial activity against small-colony variant Staphylococcus aureus isolate A22616/5 harboring 55-63 nucleotide deletion in menB gene by Etest method
[2] = test system: Staphylococcus aureus; assay: Antibacterial activity against phenotypic revertant Staphylococcus aureus OM1b:F8 harboring 694-702 nucleotide deletion in menB gene by Etest method
[3] = test system: Staphylococcus aureus; assay: Antibacterial activity against phenotypic revertant Staphylococcus aureus OM1b:F2 harboring G698C Val233Ala compensatory mutation in menB gene by Etest method
[4] = test system: Staphylococcus aureus; assay: Antibacterial activity against Staphylococcus aureus isolate A22616/5 by Etest method
[5] = test system: Staphylococcus aureus; assay: Antibacterial activity against wild type Staphylococcus aureus OM1b:F5 phenotypic revertant by Etest method
[6] = test system: Staphylococcus aureus; assay: Antibacterial activity against phenotypic revertant Staphylococcus aureus OM1b:F9 harboring G698T/Gly233Val and compensatory A776T/Lys259Ile mutant menB gene by Etest method
[7] = test system: Staphylococcus aureus; assay: Antibacterial activity against small-colony variant Staphylococcus aureus isolate OM1b harboring menB G698T Gly233Val mutant gene by Etest method
[8] = test system: Staphylococcus aureus; assay: Antibacterial activity against Staphylococcus aureus isolate OM1a by Etest method
[9] = test system: Staphylococcus aureus; assay: Antibacterial activity against Staphylococcus aureus isolate OM299/1 by Etest method
[10] = test system: Staphylococcus aureus; assay: Antibacterial activity against small-colony variant Staphylococcus aureus isolate OM299/1 harboring -1 frame shift mutation in 687 nucleotide of menB gene by Etest method

Sequence: GENTAMICIN
- MIC [1]: 12 µg/mL
- MIC [2]: 0.125 µg/mL
- MIC [3]: 0.125 µg/mL
- MIC [4]: 0.19 µg/mL
- MIC [5]: 0.125 µg/mL
- MIC [6]: 0.125 µg/mL
- MIC [7]: 8 µg/mL
- MIC [8]: 0.125 µg/mL
- MIC [9]: 0.32 µg/mL
- MIC [10]: 16 µg/mL
